PubChem BioAssay (NCI)
Values joined by “and” are separate entries in the source; they are usually repeats but may differ in a detail not shown here. Identical values can stand only once.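 Results reflect a 48-hour exposure of cells in 96-well plates to compound at five concentrations. Here, GI50 denotes the concentration required for 50% inhibition of growth. TGI marks complete inhibition of growth.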

Key:
Test in all cases: inhibition of tumour cell growth, NCI panel, 48 h
ACHN renal = tested on: ACHN renal
EKVX NSCLC = tested on: EKVX NSCLC
HCT-15 colon = tested on: HCT-15 colon
HL-60(TB) leukemia = tested on: HL-60(TB) leukemia
KM20L2 colon = tested on: KM20L2 colon
LOX IMVI melanoma = tested on: LOX IMVI melanoma
MOLT-4 leukemia = tested on: MOLT-4 leukemia
RXF 393 renal = tested on: RXF 393 renal
SF-539 CNS = tested on: SF-539 CNS
SNB-19 CNS = tested on: SNB-19 CNS

SMILES	TGI (ACHN renal) [µM]	TGI (EKVX NSCLC) [µM]	TGI (HCT-15 colon) [µM]	TGI (HL-60(TB) leukemia)	TGI (KM20L2 colon) [µM]	TGI (LOX IMVI melanoma) [µM]	TGI (MOLT-4 leukemia) [µM]	TGI (RXF 393 renal)	TGI (SF-539 CNS)	TGI (SNB-19 CNS) [µM]	GI50 (KM20L2 colon) [µM]	GI50 (ACHN renal)	GI50 (EKVX NSCLC)	GI50 (HCT-15 colon) [µM]	GI50 (HL-60(TB) leukemia) [µM]	GI50 (LOX IMVI melanoma) [µM]	GI50 (MOLT-4 leukemia) [µM]	GI50 (RXF 393 renal) [µM]	GI50 (SF-539 CNS) [µM]	GI50 (SNB-19 CNS) [µM]
COc1ccc(C[C@H](N)C(=O)N2C[C@@H](CO)C[C@@H](n3ccc(=O)[nH]c3=O)C2)cc1	> 100	> 100	> 100	> 100 µM	> 100	> 100	> 100	> 100 µM	> 100 µM	> 100										
CCCCNC(=O)/N=C/c1c(O)c2ccccc2oc1=O	> 100	> 100	> 100	57.4 µM	> 100	> 100	> 100	79.5 µM	> 100 µM	> 100										
CCCC(=O)[O-].N.N.N.N.N.[Co+3].[O-][Cl+3]([O-])([O-])[O-]	> 100	> 100	> 100		> 100	> 100	> 100		> 100 µM	> 100	> 100									
C=C1CN(C2=NCCO2)C1	> 100	> 100	> 100	> 100 µM		> 100	> 100	> 100 µM	> 100 µM	> 100										
CC1=C(C)C(=O)C(C2=CC(=O)C=CC2=O)=C(C2=CC(=O)C=CC2=O)C1=O	> 100	> 100	> 100	> 100 µM		> 96.1	44.8	> 100 µM	51.7 µM	> 100										
CC(C)(C)CC(C)(C)c1ccc(O)c(C[N+](C)(C)[O-])c1	> 100	> 100	> 100	99.6 µM		> 100	> 100	> 100 µM	> 100 µM	> 100										
COC(=O)C(NC(=O)c1ccccc1)C(c1ccc(Cl)cc1)P(=O)(OC)OC (configuration not stated)	> 100	> 100	> 100	> 100 µM	> 100	> 100	> 100	> 100 µM	> 100 µM	> 100										
OC1C[C@H](c2ccccc2)C2(C(O)c3ccccc3C2O)[C@@H](c2ccccc2)C1 (some centres not stated)	> 100	> 100	> 100	> 100 µM		> 100	> 100	> 100 µM	> 100 µM	> 100										
Cc1ccc(CCC(=O)C(=O)O)s1	> 100	> 100	> 100	> 100 µM	> 100		> 100		> 100 µM	> 100										
Cc1cc(S(=O)(=O)/N=C(/NN)NNc2cccc(C(F)(F)F)n2)c(S)cc1Cl	50.1	63.8	38.2	71.6 µM		39.7	45.7	57.2 µM	43.6 µM	68.8										
CN(C)/N=N/c1nc[nH]c1C(N)=O	> 1000	> 169	> 1000	85 µM and > 745 µM		> 1000		99.4 µM and > 165 µM	99.3 µM and > 875 µM	> 1000		32.5 µM and 76.6 µM	94.1 µM and > 134 µM	73.8	4.16	29.8	17.8	93.3	47.5	> 85.3
COc1ccc(Sc2ccccc2N)cc1	> 100	> 100	> 100	60.9 µM	> 100	> 100	> 100	75.6 µM	> 100 µM	> 100										
CCC(NC1=NCCO1)c1cccs1 (configuration not stated)	29.4	31.1	30.2	82.7 µM		66.7	> 100	33.2 µM	29.8 µM	29.8										
Cc1ccc(NC(=O)CSC(N)=O)cc1C	> 100	> 100	> 100	> 100 µM		> 100	> 100	> 100 µM	> 100 µM	> 100										
Cc1c(C(=O)O)n2cnnc2c2ccccc12	> 100	> 100	> 100	> 100 µM		> 100	> 100	> 100 µM	> 100 µM	> 100										
COc1ccc(Nc2nc(N)c(C(=O)c3cccs3)s2)cc1	> 100	> 75	> 49.1	> 22.8 µM		> 100	17.2	33.8 µM	19.5 µM	> 64.8										
O=[N+]([O-])C(Cl)=C/C(=C(\Cl)SCc1ccccc1)[N+](=O)[O-]	32.2	35.2	35.5	23.8 µM		33.6	46.9	26.3 µM	45 µM	> 100										
CC1=NN(c2nc(N)nc(CF)n2)C(C)(C)C1	> 100	> 100	> 100	> 100 µM		> 100	> 100	> 100 µM	> 100 µM	> 100										
CC(C)(C)[Si](C)(C)OCC1OC(n2cnc3c(=O)[nH]c(N)nc32)C(O[Si](C)(C)C(C)(C)C)C1O[Si](C)(C)C(C)(C)C (configuration not stated)	12.9	> 46.6	> 100	2.34 µM		> 19.7	3.45	4.69 µM	5.72 µM	6.14										
S=c1[nH]c2ccc(I)cc2c(=S)n1Cc1ccccc1	58.7	23.7	23.3	5.96 µM		16	13.4	9.21 µM	37.2 µM	48.6										
O=C(N/N=C/c1cc(Br)cc(Br)c1[O-])c1ccccc1O.O=C(N/N=C/c1cc(Br)cc(Br)c1[O-])c1ccccc1O.[Ni+2]	1.53	2.97	1.57	0.346 µM	1.85	1.84	15.6	2.62 µM	0.72 µM	3.67										
COC1OC2=CCC3C(=O)NC(=O)C3C2[C@H](OCc2ccccc2)C1OCc1ccccc1 (some centres not stated)	34.8	3.39	3.86		5.59	3.22		2.99 µM	31 µM											
C=C1C(=O)OC2CC3(C)OC3CC/C(C)=C/C(OC(C)=O)C12 (configuration not stated)	23.3	32.7	19.3	3.4 µM	20	12.8	13.9	16.4 µM	16.8 µM	31										
Fc1cc(-c2cc(-c3ccc4c(c3)OCO4)n[nH]2)c(Cl)cc1Cl	3.86	5.17	49.1	> 100 µM		8.49	> 50.7	4.45 µM	6.24 µM	12.9										
